Values quoted from earlier work, collected in US20070166380A1, “ZOLPIDEM TABLETS” (priority 2005, published 2007).

Conditions: after ingestion of the tablet

## Cc1ccc(-c2nc3ccc(C)cn3c2CC(=O)N(C)C)cc1 [zolpidem, N,N,6-trimethyl-2-(4-methylphenyl)-imidazo [1,2-s]pyridine-3-acetamide]
'or less'
  time until zolpidem starts acting: 15 to 30 min
approximately
  duration of action: 4 to 6 h
